Experimental data: paper PMC12155096 (International Journal of Molecular Sciences, 2025)
Structures can show the parent of a compound that is named as a salt. Where two headings read alike, the source gives them in different places.

What was measured:
[1] = target: T1, human CYP2C9 (Homo sapiens, UniProt P11712); assay: biochemical
[2] = target: T2, human CYP2C19 (Homo sapiens, UniProt P33261); assay: biochemical; settings: for AC50: CYP2C19 AC50 (half-maximal activity concentration)
[3] = target: T3, human CYP1A2 (Homo sapiens, UniProt P05177)
T3 sequence (P05177 1-516): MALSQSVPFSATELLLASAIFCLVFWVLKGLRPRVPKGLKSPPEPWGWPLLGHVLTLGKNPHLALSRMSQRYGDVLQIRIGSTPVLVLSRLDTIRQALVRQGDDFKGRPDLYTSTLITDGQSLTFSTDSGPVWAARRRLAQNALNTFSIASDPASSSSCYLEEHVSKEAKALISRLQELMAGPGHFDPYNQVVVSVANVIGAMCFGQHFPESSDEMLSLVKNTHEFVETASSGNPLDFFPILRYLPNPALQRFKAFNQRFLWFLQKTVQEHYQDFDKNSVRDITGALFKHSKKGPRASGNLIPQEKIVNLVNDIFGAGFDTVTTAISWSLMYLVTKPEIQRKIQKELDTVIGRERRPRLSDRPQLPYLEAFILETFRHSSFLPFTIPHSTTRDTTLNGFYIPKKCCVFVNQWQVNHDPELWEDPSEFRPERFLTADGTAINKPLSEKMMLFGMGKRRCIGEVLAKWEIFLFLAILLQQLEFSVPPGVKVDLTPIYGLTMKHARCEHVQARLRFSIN

[4] = target: T1, human CYP2C9
[5] = target: T2, human CYP2C19
[6] = target: human CYP2D6 (Homo sapiens, UniProt P10635)
[7] = CYP2C9 IC50 (half-maximal inhibitory concentration)
[8] = CYP2C9 AC50 (half-maximal activity concentration)
[9] = CYP2C19 IC50 (half-maximal inhibitory concentration)

T2 sequence (P33261 whole entry): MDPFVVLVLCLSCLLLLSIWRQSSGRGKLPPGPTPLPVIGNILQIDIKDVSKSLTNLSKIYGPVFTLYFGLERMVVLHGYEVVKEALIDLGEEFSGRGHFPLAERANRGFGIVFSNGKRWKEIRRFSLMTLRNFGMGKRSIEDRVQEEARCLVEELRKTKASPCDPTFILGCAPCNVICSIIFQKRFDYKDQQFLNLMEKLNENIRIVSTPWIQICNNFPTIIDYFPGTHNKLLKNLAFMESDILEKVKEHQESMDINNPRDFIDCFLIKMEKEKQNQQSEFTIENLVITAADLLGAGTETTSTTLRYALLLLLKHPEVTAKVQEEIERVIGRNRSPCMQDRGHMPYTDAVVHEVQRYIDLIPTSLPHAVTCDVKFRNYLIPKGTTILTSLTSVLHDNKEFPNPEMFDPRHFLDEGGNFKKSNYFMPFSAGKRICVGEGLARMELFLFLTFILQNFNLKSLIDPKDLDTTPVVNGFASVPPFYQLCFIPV
T1 sequence (P11712 whole entry): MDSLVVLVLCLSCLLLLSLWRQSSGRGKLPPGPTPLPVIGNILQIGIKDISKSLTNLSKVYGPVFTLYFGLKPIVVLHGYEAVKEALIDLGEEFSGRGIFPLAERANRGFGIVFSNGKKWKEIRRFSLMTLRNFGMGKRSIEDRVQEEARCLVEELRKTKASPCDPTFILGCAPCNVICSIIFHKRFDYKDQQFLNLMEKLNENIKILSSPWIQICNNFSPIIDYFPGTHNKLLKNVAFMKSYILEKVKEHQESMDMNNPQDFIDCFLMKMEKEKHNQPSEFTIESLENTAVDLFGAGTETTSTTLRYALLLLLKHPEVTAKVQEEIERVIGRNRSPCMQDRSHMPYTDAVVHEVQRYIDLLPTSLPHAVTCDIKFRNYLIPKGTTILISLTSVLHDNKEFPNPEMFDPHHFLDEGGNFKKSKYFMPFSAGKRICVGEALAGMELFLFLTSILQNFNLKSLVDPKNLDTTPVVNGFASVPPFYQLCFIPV
human CYP2D6, sequence (P10635 whole entry): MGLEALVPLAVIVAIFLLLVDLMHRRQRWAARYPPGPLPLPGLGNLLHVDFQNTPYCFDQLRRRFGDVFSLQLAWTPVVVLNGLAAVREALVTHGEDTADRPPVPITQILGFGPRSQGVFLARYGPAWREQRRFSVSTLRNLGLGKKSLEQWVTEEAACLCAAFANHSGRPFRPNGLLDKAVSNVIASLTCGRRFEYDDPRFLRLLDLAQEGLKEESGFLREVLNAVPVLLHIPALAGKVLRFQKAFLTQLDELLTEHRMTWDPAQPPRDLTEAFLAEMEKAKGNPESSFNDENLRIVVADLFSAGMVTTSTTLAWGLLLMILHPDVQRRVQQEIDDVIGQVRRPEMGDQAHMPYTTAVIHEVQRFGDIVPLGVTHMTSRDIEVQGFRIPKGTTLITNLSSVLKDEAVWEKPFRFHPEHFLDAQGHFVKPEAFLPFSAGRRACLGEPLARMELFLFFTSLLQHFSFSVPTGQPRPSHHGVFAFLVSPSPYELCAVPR

For `CCOC(=O)O[C@]1(C(=O)OCCl)CC[C@H]2[C@@H]3CCC4=CC(=O)C=C[C@]4(C)[C@H]3[C@@H](O)C[C@@]21C` [Loteprednol etabonate, reference compound], the IC50 [1, 7] was 29.2 µM.
In the case of `Cc1nc2ccccc2c(=O)n1-c1ccccc1Cl` [Mecloqualone], the AC50 [2] is reported as 2.88 µM and the AC50 [1, 8] is reported as 37.7 µM.
`COCC(=O)N(c1c(C)cccc1C)C(C)C(=O)OC` (stereo not drawn) [Metalaxyl] showed an AC50 [2] of 38.4 µM and an AC50 [1, 8] of 59.1 µM.
With `CN1CC[C@]23c4c5ccc(O)c4O[C@H]2[C@@H](O)C=C[C@H]3[C@H]1C5` [Morphine sulfate pentahydrate] the “CYP1A2 AC50 (half-maximal activity concentration)” value [3] was “Inactive”, the “CYP2C9 AC50 (half-maximal activity concentration)” value [4] was “Inactive” and the “CYP2C19 AC50 (half-maximal activity concentration)” value [5] was “Inactive”.
In the case of `Cc1ccccc1C(=O)Nc1ccc(C(=O)N2CCCC(N(C)C)c3ccccc32)cc1` (stereo not drawn) [Mozavaptan], the “CYP2C9 Efficacy (in parenthesis)” value ([4]; human) is reported as 26.02 ± 12.23 (-35 ± 0) % and the IC50 [1, 7] is reported as 26 µM.
`CC(C)[C@H]1CC[C@H](C(=O)N[C@H](Cc2ccccc2)C(=O)O)CC1` [Nateglinide] showed an AC50 [1, 8] of 14 µM.
`O=C(OCC(COC(=O)c1cccnc1)(COC(=O)c1cccnc1)COC(=O)c1cccnc1)c1cccnc1` [Niceritrol] showed an IC50 [1] of 3.44 µM.
With `CCOC(=O)C1=C(C)NC(C)=C(C(=O)OC)C1c1cccc([N+](=O)[O-])c1` (stereo not drawn) [Nitrendipine] the IC50 [2, 9] was 1.4 µM and the IC50 [1, 7] was 0.88 µM.
In the case of `CC(=O)Oc1ccc(C2(c3ccc(OC(C)=O)cc3)C(=O)Nc3ccccc32)cc1` [Oxyphenisatin acetate], the AC50 [2] is reported as 11.9 µM and the AC50 [1, 8] is reported as 5.5 µM.
In the case of `O=c1[nH]c2ccccc2n1C1CCN(CCCC(c2ccc(F)cc2)c2ccc(F)cc2)CC1` [Pimozide], the “CYP1A2 AC50 (half-maximal activity concentration)” value [3] is reported as “Inactive”.
`CC(C)(C)C(=O)OCOC(=O)[C@@H]1N2C(=O)[C@@H](NC(=O)[C@H](N)c3ccccc3)[C@H]2SC1(C)C` [Pivampicillin] was tested, and the IC50 [1, 7] was 23.6 µM.
With `COc1cc([C@@H]2c3cc4c(cc3[C@H](O)[C@H]3COC(=O)[C@H]23)OCO4)cc(OC)c1OC` [Podofilox] the IC50 [2, 9] was 3.71 µM and the IC50 [1] was 1.97 µM.
For `CN1C(CSCC(F)(F)F)Nc2cc(Cl)c(S(N)(=O)=O)cc2S1(=O)=O` (stereo not drawn) [Polythiazide], the AC50 [2] was 22 µM and the AC50 [1, 8] was 14.9 µM.
Compound `CCCOC(=O)Cc1ccc(OCC(=O)N(CC)CC)c(OC)c1` [Propanidid] has an AC50 [1, 8] of 21.2 µM.
For `CCCOC(C(=O)OC1CCN(C)CC1)(c1ccccc1)c1ccccc1.Cl` [Propiverine hydrochloride], the IC50 [6] was 6.81 µM.
`COc1ccc(S(=O)(=O)N2c3ccc(Cl)cc3[C@](O)(c3ccccc3Cl)[C@@H]2C(=O)N2CCC[C@H]2C(N)=O)cc1OC` [Relcovaptan] gave an IC50 [1] of 27.7 ± 9.09 µM.
In the case of `CN(CCOc1ccc(CC2SC(=O)NC2=O)cc1)c1ccccn1` (stereo not drawn) [Rosiglitazone maleate], the “CYP2C19 AC50 (half-maximal activity concentration)” value [5] is reported as “Inconclusive inhibitor”.
`CCCc1ccc(OCC(=O)N2CCN(C(=O)COc3ccc(CCC)cc3OC)CC2)c(OC)c1` [Simetride] gave an IC50 [2] of 17 ± 19.1 µM and an IC50 [1] of 6.41 ± 6.45 µM.
In the case of `CC(=O)N(c1onc(C)c1C)S(=O)(=O)c1ccc(N)cc1` [Sulfisoxazole acetal], the AC50 [1, 8] is reported as 25.8 µM.
Work on `O=C1OC(c2ccc(O)c(S(=O)(=O)O)c2)(c2ccc(O)c(S(=O)(=O)O)c2)c2c(Br)c(Br)c(Br)c(Br)c21` [Sulfobromophthalein] yielded an AC50 [1, 8] of 43.6 µM.
For `CCC(=O)O[C@H]1CC[C@H]2[C@@H]3CCC4=CC(=O)CC[C@]4(C)[C@H]3CC[C@]12C` [Testosterone propionate], the AC50 [2] was 26 µM and the AC50 [1, 8] was 30.9 µM.
`CCCC(CCC)C(=O)O` [Valproic acid] showed an AC50 [1, 8] of 47.3 µM.
`CCC1=C[C@@H]2CN(C1)Cc1c([nH]c3ccccc13)[C@@](C(=O)OC)(c1cc3c(cc1OC)N(C)[C@H]1[C@@](O)(C(=O)OC)[C@H](OC(C)=O)[C@]4(CC)C=CCN5CC[C@]31[C@@H]54)C2` [Vinorelbine tartrate] gave an IC50 [1, 7] of 21 µM.
Compound `O=C(O)Cn1c(=O)n(Cc2ccc(Br)cc2F)c(=O)c2ccc(Cl)cc21` [Zenarestat] has an AC50 [1] of 14.4 ± 0.97 µM.
For `CC1(C)C(C=C(Cl)Cl)C1C(=O)OC(C#N)c1cccc(Oc2ccccc2)c1` (stereo not drawn) [alpha-Cypermethrin], the AC50 [2] was 6.44 µM and the AC50 [1, 8] was 3.56 µM.
`COCCCC/C(=N\OCCN)c1ccc(C(F)(F)F)cc1` [fluvoxamine, reference compound] showed an IC50 ([3]; human) of 0.2 µM.
Cresyl diphenyl phosphate was tested, and the AC50 [3] was 8.9 µM, the AC50 [4] was 6.19 µM and the “CYP2D6 AC50 (half-maximal activity concentration)” value [6] was “Inactive”. It also gave an AC50 [5] of 4.18 µM.
